Test results as given in patent US7943137B2, “FPRL1 ligands and use thereof” (Takeda Pharmaceutical Company Limited, priority 2002, dated 2011).
Where a SMILES comes first, the peptide text is derived from it. Where no end group is shown, it is not given here. The star is where a group is joined. For = O=C*

Tests used:
FPRL1-GFP fusion protein = experiment: Intracellular transition (internalization) of FPRL1-GFP fusion protein expressed in CHO cells; type: cell-based, human; conditions: 37° C., one hour, Cellomics ArrayScan
Description: CHO cell line, in which a protein, wherein GFP (Green Fluorescent Protein) is fused to the C-terminus of human FPRL1, is stably expressed, was established using an expression plasmid for animal cells by publicly known method. For assay of intracellular transition of the protein, the cells at growth phase was seeded at the concentration of 40000 cells/well on 96-well plate (Packard, View-Plate™-96, Black), and cultured for overnight at 37° C. under 5% CO2. Firstly, the cells into the well were washed with assay buffer (HBSS (GibcoBRL) supplemented with 0.1% bovine serum albumin (BSA)). Then, 100 μl of the assay buffer containing a test sample were added to the well and incubated at 37° C. under 5% CO2 for one hour. Subsequently, 100 μl/well of cell fixation solution (PBS containing 4% paraformaldehyde (Ca/Mg free)) were added to the well and stood at room temperature for 30 minutes. After removing the cell fixation solution and washing the cells with Ca/Mg free PBS, a labeling solution (3.13 μg/ml of wheat germ aggulutinin (Molecular Probe, W-849) and 5 μg/ml of Hoechst-containing Ca/Mg free PBS) was added (50 μl/well) and stood at room temperature for 20 minutes. After removing the labeling solution, the cells were washed with Ca/Mg free PBS (200 μl/well) to replace the same (200 μl/well). […]

[1] = tested on: FPRL1-GFP fusion protein-expressing CHO cells; experiment: Cell migration stimulating activity to FPRL1-GFP fusion protein-expressing CHO cells; type: cell-based, human; conditions: chemotaxis chamber, 37° C., 4 hours, FIG. 24
Description: Using FPRL1-GFP fusion protein-expressing CHO cells, which are described in Example 18, a cell migration activity of the above cells by stimulation using formylated peptide was investigated.
The 96-well disposable chemotaxis chamber (ChemoTx-96, Neuro Probe) was used for assay. Firstly, to bottom well of the chamber, a test sample diluted with DMEM (Invitrogen) containing 0.5% BSA was added. Then, a polycarbonate filter, which is precoated with 10 μg/ml bovine fibronectin (Yagai) on both sides, was fixed on the chamber, and contacted with the test sample. Next, suspension for FPRL1-GFP fusion protein-expressing CHO cells was put onto the filter at 96-well site as a droplet. The chamber was covered, and cultured at 37° C. for 4 hours under conditions of 5% CO2. The cell suspension was prepared as follows: the aforementioned CHO cells at growth phase, which had been precultured in 150 cm^2 flask for culture, were peal off using trypsin/EDTA; the cell suspension obtained was centrifuged to get cell precipitation; and after washing with PBS once, the cells were resuspended in DMEM medium containing 0.5% BSA at the concentration of 3.6×10^6 cells/ml. […] For this filter, absorbance at 595 nm was measured using microplate reader.

human FPRL1 = biological target: T1, human FPRL1 (Homo sapiens, UniProt P25090); experiment: Inhibiting activity for intracellular cAMP production in human FPRL1-expressing CHO cells; type: cell-based; conditions: comparison of purified ligand and chemical preparation, FIG. 14
T1 construct: expressed in transfected cells; host or cells: CHO cells (clone No. 8)
T1 sequence (P25090 1-351): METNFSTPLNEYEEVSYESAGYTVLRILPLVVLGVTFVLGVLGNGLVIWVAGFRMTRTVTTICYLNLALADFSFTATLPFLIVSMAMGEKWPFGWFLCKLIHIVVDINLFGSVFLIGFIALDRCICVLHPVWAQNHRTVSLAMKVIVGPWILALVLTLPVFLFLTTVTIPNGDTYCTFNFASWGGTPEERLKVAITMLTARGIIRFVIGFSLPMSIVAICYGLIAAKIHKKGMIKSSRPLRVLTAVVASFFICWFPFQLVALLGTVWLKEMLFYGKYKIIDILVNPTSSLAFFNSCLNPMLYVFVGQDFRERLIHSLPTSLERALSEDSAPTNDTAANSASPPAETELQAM
From the text: The term “Peptide (nM)” on horizontal axis and “Inhibition (5)” on vertical axis means a concentration of peptide (nM) and an inhibiting activity for intracellular cAMP production (Inhibition (%)), respectively. Closed triangle represents an activity of the intrinsic FPRL1 ligand P1, which has been purified in Example 7. It is derived from fr. 24-25 of the final purified preparation uRPC C2/C18 SC2.1/10. The concentration for peptide is deduced from the absorbance at 215 nm of final purification chromatogram. Closed circle indicates an activity of 16 amino acid peptide containing N-terminal fifteen amino acids of porcine cytochrome B, at which synthetic N-terminus is formylated (formyl-MTNIRKSHPLMKIINN).
Activity of porcine intrinsic FPRL1 ligand P1, which was purified in Example 7, and activity of 16 amino acid-peptide (formyl-MTNIRKSHPLMKIINN, SEQ ID NO: 18), comprising 15 amino acids at N-terminus of N-terminally formylated porcine cytochrome B, wherein the sequence was deduced from structure analysis, were compared using an inhibiting activity for intracellular cAMP production in human […] CHO cells as an index (FIG. 14).

Row | inhibiting activity for intracellular cAMP production (human FPRL1) | Compound | intracellular transition of FPRL1-GFP protein (MemCyto Above Threshold) (FPRL1-GFP fusion protein) | cell migration stimulating activity (absorbance at 595 nm) [1]
1 |  | CSCC[C@H](NC=O)C(=O)N[C@@H](Cc1ccccc1)C(=O)N[C@@H](C)C(=O)N[C@@H](CC(=O)O)C(=O)N[C@@H](CCCNC(=N)N)C(=O)N[C@@H](Cc1c[nH]c2ccccc12)C(=O)N[C@@H](CC(C)C)C(=O)N[C@@H](Cc1ccccc1)C(=O)N[C@@H](CO)C(=O)N[C@H](C(=O)N[C@@H](CC(N)=O)C(=O)N[C@@H](Cc1c[nH]cn1)C(=O)N[C@@H](CCCCN)C(=O)O)[C@@H](C)O [hfCYOX-1(1-13)] (For-MFADRWLFSTNHK-OH; C-terminus assumed) | concentration-dependent transition of FPRL1-GFP protein from cell membrane to cytoplasm | bell-shaped dose-dependent cell migration stimulating activity
2 |  | CSCC[C@H](NC=O)C(=O)N[C@@H](Cc1ccccc1)C(=O)N[C@H](C(=O)N[C@@H](CC(N)=O)C(=O)N[C@@H](CCCNC(=N)N)C(=O)N[C@@H](Cc1c[nH]c2ccccc12)C(=O)N[C@@H](CC(C)C)C(=O)N[C@@H](Cc1ccc(O)cc1)C(=O)N[C@@H](CO)C(=O)N[C@H](C(=O)N[C@@H](CC(N)=O)C(=O)N[C@@H](Cc1c[nH]cn1)C(=O)N[C@@H](CCCCN)C(=O)O)[C@@H](C)O)C(C)C [pfCYOX-1(1-13)] (For-MFVNRWLYSTNHK-OH; C-terminus assumed) | concentration-dependent transition of FPRL1-GFP protein from cell membrane to cytoplasm | bell-shaped dose-dependent cell migration stimulating activity
3 | both activities are equivalent | CHO-Met-Thr-Asn-Ile-Arg-Lys-Ser-His-Pro-Leu-Met-Lys-Ile-Ile-Asn ({CHO}-MTNIRKSHPLMKIIN) [porcine intrinsic FPRL1 ligand P1, purified from porcine stomach; N-terminal peptide of N-formylated porcine cytochrome b] |  | 
4 | both activities are equivalent | formyl-MTNIRKSHPLMKIINN (For-MTNIRKSHPLMKIINN) [16 amino acid-peptide comprising 15 amino acids at N-terminus of N-terminally formylated porcine cytochrome B] |  | 
